Laboratory results taken from publication PMC3501490 (PLoS ONE, 2012).
Blank lines part the entries; values can stand above or below the substance they belong to. Where no end group is shown, it is not given here. [ ]: non-standard residue; d: D form. pY = N[C@@H](Cc1ccc(OP(=O)(O)O)cc1)C(=O)O

What was measured:
[1] = tested on: washed human platelets (CRP); assay: Light transmission aggregometry of TAT-peptide-loaded platelets, CRP; assay type: cell-based; conditions: for effect on EC50 / sensitivity to CRP: washed human platelets, TAT peptide loading
Procedure: (§1) Whole blood was taken from healthy volunteers and collected into 50 ml syringes containing 5 ml acid citrate-dextrose (ACD) in accordance with procedures approved by the Local Research Ethics Committee (Ref: 07/Q1603/17). Platelet-rich plasma (PRP) was isolated by centrifugation at 200 g for 10 minutes at room temperature. PRP was pooled and 10 µg PGI2 was added before centrifugation at 1000 g for 10 minutes at room temperature. Platelets were resuspended in 1 ml Tyrodes buffer (134 mM NaCl, 0.34 mM Na2HPO4, 2.9 mM KCl, 12 mM NaHCO3, 20 mM HEPES, 5 mM glucose, 1 mM MgCl2, pH 7.3) pre-warmed to 30°C and 150 µl ACD. The volume was adjusted to 25 ml with Tyrodes buffer, followed by 3 ml ACD and 1.25 µg PGI2. Cells were centrifuged at 1000 g for 10 minutes at room temperature and the resultant cell pellet was resuspended in 1 ml pre-warmed Tyrodes buffer before adjusting the volume to a final cell density of 4×10^8 cells/ml (aggregations) or 2×10^9 cells/ml (peptide pull downs). Where appropriate, 1 mM EGTA, 10 µM indomethacin and 2 U/ml apyrase were added to inhibit aggregations (referred to as non-aggregating conditions).
(§2) Fluorescein-labelled, TAT-G6B-b peptides were synthesised by Peptide Protein Research Ltd (Hampshire, U.K.). Peptides were either unphosphorylated, or phosphorylated at both ITIMs as follows: Dual phosphorylated peptide – FLUO- […]*[…]*AVVV or unphosphorylated control peptide (lacking tyrosine phosphorylation) - FLUO- […]. TAT sequences are underlined and phosphorylated tyrosines marked with an asterisk. Peptides were loaded into washed platelets by incubation with 10 µM peptide for 15 minutes at 30°C, after which they were assessed by light transmission aggregometry. Peptide loading conditions were optimised and verified by flow cytometry.
(§3) Washed human platelets were loaded with TAT-G6B-b peptides (either dual phosphorylated or unphosphorylated) and changes in CRP efficacy determined by light transmission aggregometry. […] Thrombin-mediated activation was unaffected (data not shown). […] Peptide loading was verified by flow cytometry (Figure 9C and 9D.

[2] = tested on: washed human platelets (collagen); assay: Light transmission aggregometry of TAT-peptide-loaded platelets, collagen; assay type: cell-based; conditions: for effect on EC50 / sensitivity to collagen: washed human platelets, TAT peptide loading
Procedure: as §1, §2, §3

[3] = tested on: washed human platelets (thrombin); assay: Activation of TAT-peptide-loaded platelets, thrombin; assay type: cell-based; conditions: platelets loaded with 10 µM peptide, 15 min, 30°C; data not shown
Procedure: Whole blood was taken from healthy volunteers and collected into 50 ml syringes containing 5 ml acid citrate-dextrose (ACD) in accordance with procedures approved by the Local Research Ethics Committee (Ref: 07/Q1603/17). Platelet-rich plasma (PRP) was isolated by centrifugation at 200 g for 10 minutes at room temperature. PRP was pooled and 10 µg PGI2 was added before centrifugation at 1000 g for 10 minutes at room temperature. Platelets were resuspended in 1 ml Tyrodes buffer (134 mM NaCl, 0.34 mM Na2HPO4, 2.9 mM KCl, 12 mM NaHCO3, 20 mM HEPES, 5 mM glucose, 1 mM MgCl2, pH 7.3) pre-warmed to 30°C and 150 µl ACD. The volume was adjusted to 25 ml with Tyrodes buffer, followed by 3 ml ACD and 1.25 µg PGI2. […]
Fluorescein-labelled, TAT-G6B-b peptides were synthesised by Peptide Protein Research Ltd (Hampshire, U.K.). […] Peptides were loaded into washed platelets by incubation with 10 µM peptide for 15 minutes at 30°C, after which they were assessed by light transmission aggregometry. […]
Washed human platelets were loaded with TAT-G6B-b peptides (either dual phosphorylated or unphosphorylated) and changes in CRP efficacy determined by light transmission aggregometry. […]

[4] = molecular target: T1, SHP-1 tandem (N+C) SH2 domains (Homo sapiens, UniProt P29350); assay: SPR (BIAcore 3000), SHP-1 tandem (N+C) SH2 domains; assay type: binding
T1 construct: host or cells: E. coli BL21(DE3)
T1 sequence (P29350 1-213 limits assumed): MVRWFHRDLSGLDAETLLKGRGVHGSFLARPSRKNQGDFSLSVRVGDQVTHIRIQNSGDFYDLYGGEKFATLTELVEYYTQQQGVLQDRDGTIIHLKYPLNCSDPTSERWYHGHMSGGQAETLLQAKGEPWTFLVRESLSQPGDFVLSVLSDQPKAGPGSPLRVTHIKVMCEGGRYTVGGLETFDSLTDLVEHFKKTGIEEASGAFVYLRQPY
T1 sequence (O95866 182-241 partner limits assumed): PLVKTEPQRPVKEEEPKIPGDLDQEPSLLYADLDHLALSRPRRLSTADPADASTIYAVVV
Procedure: (§4) These proteins were expressed in BL21(DE3) cells (Invitrogen) induced with 1 mM IPTG for 4 hours at 37°C. Bacteria were pelleted and washed in PBS/0.5 M NaCl prior to sonication in PBS/0.5 M NaCl, in the presence of protease inhibitor cocktail (Complete, EDTA-free, Roche). Soluble and insoluble fractions were separated by centrifugation at 30,000 g for 60 minutes. Soluble fractions containing tagged proteins were incubated for 1 hour at 4°C with end-over-end mixing in the presence of washed Ni-Sepharose (GE Lifesceinces, Little Chalfont, U.K.) supplemented with 40 mM imidazole or Amylose resin (NEB, Herts, U.K). Proteins were eluted according to the manufacturer's instructions and purified by size exclusion chromatography on an AKTApurifier (GE Lifesciences, Little Chalfont, U.K).
Experiments were conducted on a BIAcore™ 3000 in HBS buffer (0.01 M HEPES, pH 7.4, containing 0.15 M NaCl, 3 mM EDTA, and 0.005% v/v P-20, GE Life Sciences, Amersham, UK). […] Binding affinities for the single ITIM/ITSM peptides were determined by plotting equilibrium binding measurements (RU) against SH2 domain protein concentration (Origin 8, OriginLab, MA, USA). […] KD was determined as Koff/Kon, which were determined using both GraphPad Prism 5.0 (GraphPad, La Jolla, CA, USA) and BIAevaluation Software (GE Life Sciences, Amersham,UK). […]

[5] = molecular target: T2, SHP-2 tandem (N+C) SH2 domains (Homo sapiens, UniProt Q06124); assay: SPR (BIAcore 3000), SHP-2 tandem (N+C) SH2 domains; assay type: binding; conditions: kinetic (koff/kon), single site model, HBS pH 7.4, 37°C, 50 µl/min, mean, n = 5, SEM
T2 construct: SHP-2 (N+C)SH2 domains (His-tag) (3911); His-tag; host or cells: E. coli BL21(DE3)
T2 sequence (Q06124 1-216 limits assumed): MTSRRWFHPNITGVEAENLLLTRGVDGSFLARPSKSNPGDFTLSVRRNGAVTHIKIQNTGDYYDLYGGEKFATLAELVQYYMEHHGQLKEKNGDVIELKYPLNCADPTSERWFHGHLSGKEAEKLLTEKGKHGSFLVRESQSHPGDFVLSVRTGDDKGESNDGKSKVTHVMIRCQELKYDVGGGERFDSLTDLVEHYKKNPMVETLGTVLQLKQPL
T2 sequence (O95866 182-241 partner limits assumed): T1 sequence (O95866 182-241 partner limits assumed)
Procedure: Experiments were conducted on a BIAcore™ 3000 in HBS buffer (0.01 M HEPES, pH 7.4, containing 0.15 M NaCl, 3 mM EDTA, and 0.005% v/v P-20, GE Life Sciences, Amersham, UK). Streptavidin was coupled to a research grade CM5 chip (GE Life Sciences, Amersham, UK) as previously described [12], [13]. Protein-peptide interactions were carried out a rate of 10 µl/min at a constant temperature of 37°C to more accurately reflect physiological conditions. Biotinylated peptides were bound to the streptavidin-coated CM5 chips at 37°C to between 25–50 RU [14]. Purified monomeric SH2 domains were passed over the immobilised peptides at a range of concentrations. Anti-phosphotyrosine monoclonal antibody (Sigma, Poole, U.K.) was passed over the chip to saturation at the end of each experiment to verify peptide coverage on the chip. Binding affinities for the single ITIM/ITSM peptides were determined by plotting equilibrium binding measurements (RU) against SH2 domain protein concentration (Origin 8, OriginLab, MA, USA). […] For the 60-mer peptides, SH2 domains were passed over the chip surface at 50 µl/min. KD was determined as Koff/Kon, which were determined using both GraphPad Prism 5.0 (GraphPad, La Jolla, CA, USA) and BIAevaluation Software (GE Life Sciences, Amersham,UK).
We kinetically determined the binding affinity (KD = koff/kon) by SPR at physiological temperatures.

[6] = molecular target: T3, N-terminal SH2 domain of SHP-2 (Homo sapiens, UniProt Q06124); assay: SPR (BIAcore 3000), single N-terminal SH2 domain of SHP-2; assay type: binding; conditions: equilibrium binding, single site fitting, HBS pH 7.4, 37°C, 10 µl/min, read-out: KD
T3 construct: SHP-2 (N)SH2 (His-tag) (OMC #3912); His-tag; host or cells: E. coli BL21(DE3)
T3 sequence (Q06124 6-102 limits assumed): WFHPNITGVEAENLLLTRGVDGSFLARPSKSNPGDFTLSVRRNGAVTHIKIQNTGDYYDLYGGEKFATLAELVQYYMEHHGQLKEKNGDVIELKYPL
Procedure: as §4
Experiments were conducted on a BIAcore™ 3000 in HBS buffer (0.01 M HEPES, pH 7.4, containing 0.15 M NaCl, 3 mM EDTA, and 0.005% v/v P-20, GE Life Sciences, Amersham, UK). Streptavidin was coupled to a research grade CM5 chip (GE Life Sciences, Amersham, UK) as previously described, [13]. Protein-peptide interactions were carried out a rate of 10 µl/min at a constant temperature of 37°C to more accurately reflect physiological conditions. Biotinylated peptides were bound to the streptavidin-coated CM5 chips at 37°C to between 25–50 RU [14]. Purified monomeric SH2 domains were passed over the immobilised peptides at a range of concentrations. Anti-phosphotyrosine monoclonal antibody (Sigma, Poole, U.K.) was passed over the chip to saturation at the end of each experiment to verify peptide coverage on the chip. Binding affinities for the single ITIM/ITSM peptides were determined by plotting equilibrium binding measurements (RU) against SH2 domain protein concentration (Origin 8, OriginLab, MA, USA). KD was defined as the concentration of SH2 protein that gave half maximal binding to the peptide. […] KD was determined as Koff/Kon, which were determined using both GraphPad Prism 5.0 (GraphPad, La Jolla, CA, USA) and BIAevaluation Software (GE Life Sciences, Amersham,UK).

Syk = molecular target: T4, Syk (Homo sapiens, UniProt P43405); assay: SPR (BIAcore 3000), Syk SH2 domains; assay type: binding; conditions: HBS pH 7.4, 37°C, n = 3
T4 construct: made in house
Procedure: Experiments were conducted on a BIAcore™ 3000 in HBS buffer (0.01 M HEPES, pH 7.4, containing 0.15 M NaCl, 3 mM EDTA, and 0.005% v/v P-20, GE Life Sciences, Amersham, UK). Streptavidin was coupled to a research grade CM5 chip (GE Life Sciences, Amersham, UK) as previously described, [13]. Protein-peptide interactions were carried out a rate of 10 µl/min at a constant temperature of 37°C to more accurately reflect physiological conditions. Biotinylated peptides were bound to the streptavidin-coated CM5 chips at 37°C to between 25–50 RU [14]. Purified monomeric SH2 domains were passed over the immobilised peptides at a range of concentrations. Anti-phosphotyrosine monoclonal antibody (Sigma, Poole, U.K.) was passed over the chip to saturation at the end of each experiment to verify peptide coverage on the chip. Binding affinities for the single ITIM/ITSM peptides were determined by plotting equilibrium binding measurements (RU) against SH2 domain protein concentration (Origin 8, OriginLab, MA, USA). KD was defined as the concentration of SH2 protein that gave half maximal binding to the peptide. For the 60-mer peptides, SH2 domains were passed over the chip surface at 50 µl/min. KD was determined as Koff/Kon, which were determined using both GraphPad Prism 5.0 (GraphPad, La Jolla, CA, USA) and BIAevaluation Software (GE Life Sciences, Amersham,UK). […]

SHP-1 = assay: Peptide pull down from platelet lysate, SHP-1; assay type: binding; conditions: human platelet lysate, Western blotting; 4°C, 30 min; n = 3
Procedure: (§5) Forty micrograms of peptide were coupled to 50 µl of Streptactin beads (50% slurry) for 30 minutes at 4°C with end-over-end mixing, washed twice with 1 ml PBS and resuspended in 100 µl of modified Tyrodes buffer. Platelets were resuspended in modified Tyrodes buffer at a concentration of 2×10^9 cells/ml under non-aggregating conditions (10 µM indomethacin, 1 mM EGTA and 2 U/ml apyrase). Cells were activated with 1 ug/ml CRP for 90 seconds under stirring, but non-aggregating conditions, before reactions were terminated by the addition of 500 µl 2× NP40 lysis buffer (150 mM NaCl, 10 mM Tris pH 7.5, 1 mM EGTA, 1 mM EDTA, 1% NP-40) with inhibitors (Roche Complete mini protease inhibitor cocktail, 5 mM NaF, 5 mM NaVO4, 250 nM beta-glycerophosphate) and placed on ice. Lysates were pooled and pre-cleared as a batch with 200 µl streptactin beads (50% slurry). Non-specific interactions were then removed by centrifugation at 4,750 g for 15 minutes at 4°C. Pre-cleared lysates were incubated with 50 µl peptide/bead conjugate (50% slurry) at 4°C for 30 minutes with end-over-end mixing. […]
(§6) Although likely that these interactions are direct, this has not yet been conclusively shown. […] Peptide associated material was separated by SDS-PAGE and assessed for the presence of SHP-1 and SHP-2 by Western blotting, both of which were clearly identified (Figure 1C).

SHP-2 = assay: Peptide pull down from platelet lysate, SHP-2; assay type: binding; conditions: human platelet lysate, Western blotting; 4°C, 30 min; n = 3
Procedure: as §5, §6

[7] = 10 µM peptide, 15 min, 30°C, vs vehicle control
[8] = listed as G6B-b dual phosphorylated peptide

Substance: FLUO- GRKKRRQRRRPQDLDQEPSLLY*ADLDHLALSRPRRLSTADPADASTIY*AVVV [dual phosphorylated G6B-b TAT-peptide, Fluorescein-labelled TAT-G6B-b peptide phosphorylated at both ITIMs]
fold increase in EC50 of CRP [1, 7]: ~1.65 fold
effect on EC50 / sensitivity to CRP [1]: can reduce the EC50 for both CRP and collagen
effect on EC50 / sensitivity to CRP [1, 8]: reduces platelet sensitivity to GPVI agonists
fold increase in EC50 of collagen [2, 7]: 2.5 fold
effect on EC50 / sensitivity to collagen [2]: can reduce the EC50 for both CRP and collagen
effect on EC50 / sensitivity to collagen [2, 8]: reduces platelet sensitivity to GPVI agonists
thrombin-mediated activation [3]: unaffected

Koff ([4]; 37°C, dual peptide, read-out: Koff (dissociation rate)): 0.01 s⁻¹
Kd ([4]; kinetic (koff/kon), single site model, HBS pH 7.4, 37°C, 50 µl/min, mean, n = 5, SEM, read-out: binding affinity (KD)): 35.3 ± 4.3 nM
Kd [5]: 0.48 ± 0.09 nM
Kd [6]: 130 nM
Kd (Syk): ~25 µM
Substance: PLVKTEPQRPVKEEEPKIPGDLDQEPSLL[pY]ADLDHLALSRPRRLSTADPADASTI[pY]AVVV [dual phosphopeptide]

Substance: unphosphorylated control peptides: biotinylated 60-mer G6B-b peptide (182 to 241), unphosphorylated (PLVKTEPQRPVKEEEPKIPGDLDQEPSLLYADLDHLALSRPRRLSTADPADASTIYAVVV; also: biotinylated (end not given here))
association (SHP-1): No SHP-1 or SHP-2 bound
association (SHP-2): No SHP-1 or SHP-2 bound
